Assay results from patent US7662864B2, “Solution polymerization processes to prepare a polymer that degrades to release a physiologically active agent” (Rutgers, The State University of New Jersey, priority 2003, dated 2010).
Read-outs that look alike come from different tables or passages of the source.

Columns and labels:
[1] = cited from earlier work; for Plasma Levels (Anti-Inflammatory Effectiveness): Clinical Use
[2] = cited from earlier work
[3] = Plasma diflunisal in rats after subcutaneous polydiflunisal microspheres; assay type: in vivo; conditions: single oral dose
Description: Processes for making nanoparticle formulations are also known in the art, and need not be fully described in this patent. The surface eroding property of polymers such as polydiflunisal makes for solid, non-porous particles, e.g. nano- and micro-spheres, useful for sustained drug delivery, and their release duration may be controlled by varying particle diameter, e.g. larger microparticles biodegrade more slowly than smaller ones. Nano- and microparticles for pharmaceutical formulations may be designed to deliver an agent(s) or compound(s) incorporated into the polymer backbone and optionally an agent(s) blended, appended to, or dispersed in the polymer. […] Microparticle formulations of about 1, 2, 5, 7.5, 10, 25, 50 to about 10, 15, 30, 50, 75, 100, 250 μm are suitable for use in a pharmaceutical, veterinary or other type of formulations. Similarly, nanoparticle formulations may be administered for various applications, having a particle size about 1, 2, 5, 10 to about 15, 20, 30, 50, 100, 250, 500 nm, or various ranges between any two of these values. […] While the injection of a drug or biological agent carried by a polymer of the invention, e.g. a polyNSAID, may be expected to generate significant drug, e.g. NSAID, concentrations in tissues near the injection site, their systemic levels in most cases will remain less than about […], which are far below therapeutic levels. […]

Rat = conditions: in vivo; cited from earlier work
[4] = tested on: chronically-inflamed tissue; conditions: cited from earlier work

O=C(O)c1cc(-c2ccc(F)cc2F)ccc1O [Diflunisal, 5-(2,4-difluorophenyl)-salicylic acid]
Plasma Levels (Anti-Inflammatory Effectiveness) [1]: 50 to 190 µg/mL
No. Metabolites ([1]; in vivo): 2
Plasma half-life ([1]; in vivo): 8 to 12 h
Where Metabolized ([1]; in vivo): Liver, Intestine
Water Solubility [2]: Very Low
course of drug level [3]: declined rapidly

O=C(O)c1ccccc1O [Salicylic Acid]
Plasma Levels (Anti-Inflammatory Effectiveness) [1]: 150 to 300 µg/mL
Water Solubility [2]: High

O=C(O)CCCCCCCCC(=O)O [Sebacic Acid]
Rat Oral LD50 (Rat): 14,470 mg/kg

CN1CC[C@]23c4c5ccc(O)c4O[C@H]2[C@@H](O)C=C[C@H]3[C@H]1C5 [morphine]
pain relief ([4]; 1 mg injected into chronically-inflamed gum tissue): profound pain relief
pain relief ([4]; 3 mg intra-articular injection in RA patients): pain relief similar to that of 4 mg dexamethasone
